One experiment deals with EGFR. To be noted: Ucn1, CRF1R-expressing HEK293; cited from earlier work.
Experiment [1] relates to CRF1R-mediated ERK1/2 phosphorylation. Kind of experiment: Modulation of CRF-stimulated ERK1/2 phosphorylation in COS-7 cells expressing HA-CRF1R. It counts as cell-based. As to conditions: 30 min pretreatment, 100 nM CRF, 5 min. The procedure: Plasmid pRK5 encoding the carboxyl terminus of βARK that contains its βγ-binding domain (ct-βARK) was kindly provided by Dr. W. Koch (Center for Translational Medicine, Temple University, Philadelphia, PA), which is a scavenger for G protein βγ subunits ([25]). […] Plasmid pUSEamp encoding dominant-negative Akt-K179M (dn-Akt) was from Upstate Biotechnology (Lake Placid, NY).
COS-7 cells (from the American Type Culture Collection) were cultured at 37°C in a humidified atmosphere of 95% air, 5% CO2, in DMEM supplemented with 10% FBS, 100 μg/ml streptomycin, and 100 units/ml penicillin (COS-7 growth medium). Transient transfections were performed using LipofectAMINE (Life Technologies: Gaithersburg, MD) as described previously ([27]). Cells were seeded at 8 × 10^5 cells/10-cm dish in COS-7 medium and cultured for 3 days before transfection. COS-7 cells were transfected in 5 ml/dish OptiMEM containing 10 μg/ml LipofectAMINE with empty vector, pcDNA3 encoding the HA-CRF1R or the HA-CRF1R-Δ386 mutant. […] After replacing the transfection medium with fresh growth medium, transfected COS-7 cells were cultured for 1 day. Subsequently, cells were re-seeded in 6-well plates and cultured for an additional day prior to the experiment.
(§1) The protocols for measuring total and phosphorylated ERK1/2, c-Src, PYK2, Akt, and EGFR have been previously published ([28], [29]). After cells were cultured to 60–70% confluence, they were serum-deprived for 24 h. On the day of the experiment, cells were treated with the indicated ligands and inhibitors. […] After treatment, cells were placed on ice, the media was aspirated, and the cells were washed twice with ice-cold PBS and lysed in 100 μl of Laemmli sample buffer 1X. The lysates were briefly sonicated, heated at 95°C for 5 min, and centrifuged for 5 min at 14,000 rpm. Resulting supernatants were loaded in separate lanes of a 10% SDS-PAGE gels and electrophoresed. Next, Western transfer on to PDVF membranes was completed. The Western blots were then probed with specific antibodies targeting phosphorylated and non-phosphorylated forms of ERK1/2, c-Src, PYK2, Akt, and EGFR for primary immunodetection. After blots were probed with horseradish peroxidase-conjugated secondary antibody, protein bands were visualized with enhanced chemiluminescence ECL reagent (Amersham Pharmacia Biotech, Piscataway, NJ or Pierce Biotechnology, Rockford, IL) and scanned using the GS-800 Calibrated Imaging Densitometer (Bio-Rad). The labeled bands were quantified using the Quantity One 4.6.3 software program (Bio-Rad).
Total cell lysates were separated by SDS-PAGE and analyzed by immunoblotting with anti-p-ERK1/2 Thr^202/Tyr^204, as described in Materials and Methods. ERK1/2 phosphorylation was quantitated by densitometry, and mean values were plotted from five independent experiments.
Total cell lysates were separated by SDS-PAGE and analyzed by immunoblotting with anti-p-ERK1/2 Thr^202/Tyr^204 (A–D) or anti-p-EGFR Tyr^1068 (E), as described in Materials and Methods. ERK1/2 and EGFR phosphorylation were quantitated by densitometry, and mean values were plotted from three to five independent experiments.
Total cell lysates were separated by SDS-PAGE and analyzed by immunoblotting with anti-p-ERK1/2 Thr^202/Tyr^204, as described in Materials and Methods. ERK1/2 phosphorylation was quantitated by densitometry, and mean values were plotted from three to five independent experiments.

The test system of experiment [2] is PMA-stimulated ERK1/2 phosphorylation. Briefly: Modulation of PMA-stimulated ERK1/2 phosphorylation in COS-7 cells. To be noted: BIM 1 μM, 30 min pretreatment; 100 nM PMA, 15 min. It counts as cell-based. The procedure:
COS-7 cells (from the American Type Culture Collection) were cultured at 37°C in a humidified atmosphere of 95% air, 5% CO2, in DMEM supplemented with 10% FBS, 100 μg/ml streptomycin, and 100 units/ml penicillin (COS-7 growth medium). Transient transfections were performed using LipofectAMINE (Life Technologies: Gaithersburg, MD) as described previously ([27]). Cells were seeded at 8 × 10^5 cells/10-cm dish in COS-7 medium and cultured for 3 days before transfection. COS-7 cells were transfected in 5 ml/dish OptiMEM containing 10 μg/ml LipofectAMINE with empty vector, pcDNA3 encoding the HA-CRF1R or the HA-CRF1R-Δ386 mutant. […]
The protocols for measuring total and phosphorylated ERK1/2, c-Src, PYK2, Akt, and EGFR have been previously published ([28], [29]). […] The labeled bands were quantified using the Quantity One 4.6.3 software program (Bio-Rad).
Figure 2 CRF-induced ERK1/2 phosphorylation is dependent on Gi protein. […] Total cell lysates were separated by SDS-PAGE and analyzed by immunoblotting with anti-p-ERK1/2 Thr^202/Tyr^204, as described in Materials and Methods. ERK1/2 phosphorylation was quantitated by densitometry, and mean values were plotted from five independent experiments. […]
Total cell lysates were separated by SDS-PAGE and analyzed by immunoblotting with anti-p-ERK1/2 Thr202/Tyr204, as described in materials and methods. […]

Experiment [3] deals with basal ERK1/2 or Akt phosphorylation. Briefly: Basal ERK1/2 and Akt phosphorylation in COS-7 cells expressing CRF1R. It counts as cell-based. As to conditions: 1 µM BIM, 30 min. The procedure:
as §1, with “After blots were probed with horseradish peroxidase-conjugated secondary antibody, protein bands were visualized with enhanced chemiluminescence ECL reagent (Amersham Pharmacia Biotech, Piscataway, NJ or Pierce Biotechnology, Rockford, IL) and scanned using the GS-800 Calibrated Imaging Densitometer (Bio-Rad).” left out, “(Bio-Rad). […]” for “(Bio-Rad).”
Total cell lysates were separated by SDS-PAGE and analyzed by immunoblotting with anti-p-Akt Ser473 or anti-p-ERK1/2 Thr202/Tyr204, as described in materials and methods. […]

The test system of experiment [4] is CRF1R-expressing SK-N-MC neuroblastoma cells. Briefly: ERK1/2 phosphorylation in CRF1R-expressing SK-N-MC neuroblastoma cells. Type of experiment: cell-based. As to conditions: 100 ng/ml FGF, 2 or 5 min. The procedure: as §1, with “After blots were probed with horseradish peroxidase-conjugated secondary antibody, protein bands were visualized with enhanced chemiluminescence ECL reagent (Amersham Pharmacia Biotech, Piscataway, NJ or Pierce Biotechnology, Rockford, IL) and scanned using the GS-800 Calibrated Imaging Densitometer (Bio-Rad).” left out
Supplementary Figure S2. […] Total cell lysates were separated by SDS-PAGE and analyzed by immunoblotting with anti-p-ERK1/2 Thr202/Tyr204, as described in materials and methods. […]

Experiment [5] deals with CATH.a, rat fetal microglial, locus coeruleus, and transfected CHO cells. To be noted: H89; cited from earlier work. From the text:
(§2) Defining the molecular mechanisms for ERK1/2 signaling by a GPCR has become a significant focus of signal transduction research due to the multifaceted pathways mediating signaling via the ERK1/2-MAP kinase cascade. A significant role of the ERK1/2-MAP kinase pathway has been recognized in the biological action of both CRF1R and CRF2R. ERK1/2 is widely distributed in the brain and is considered an essential regulator of the molecular processes involved in response to stress ([6], [64]). It is well-established that most GPCRs signal via ERK1/2-MAP kinase cascades through distinct Gi-, Gs-, and ...

The test system of the next experiment is fetal hippocampal cells. To be noted: H89 pretreatment; cited from earlier work.
Text: as §2

Ends that are not written are not given here.

For the molecule “Ucn1: urocortin 1 (DNPSLSIDLTFHLLRTLLELARTQSQRERAEQNRIIFDSV; ends and bridges not checked; UniProt P55089 83-122, looked up)”, the EGFR transactivation entry in the experiment on EGFR is listed as “stimulated EGFR transactivation”.
Regarding `CN(C)CCCn1cc(C2=C(c3c[nH]c4ccccc34)C(=O)NC2=O)c2ccccc21` [BIM, bisindolylmaleimide I], the “CRF-stimulated ERK1/2 activation, fold increase” value in experiment [1] (BIM 1 μM) is ~ 1.6 -fold increase over CRF stimulation. The “effect on PMA-induced ERK1/2 phosphorylation” value in experiment [2] is listed as “inhibited ERK1/2 phosphorylation resulting from PMA-induced PKC activation”. The “effect on basal ERK1/2 activation” value in experiment [3] was “small increase in ERK1/2 activation”.
As to fibroblast growth factor, the ERK1/2 phosphorylation result in experiment [4] is “induced strong ERK1/2 phosphorylation”.
Turning to `O=S(=O)(NCCNC/C=C/c1ccc(Br)cc1)c1cccc2cnccc12` [H89], the “effect on CRF-stimulated ERK1/2 phosphorylation” value in experiment [1] (H89 500 nM) was “failed to inhibit CRF-stimulated ERK1/2 phosphorylation”. Moreover, in experiment [5], the “effect on CRF1R-mediated ERK signaling” value is reported as “failed to inhibit CRF1R-mediated ERK signaling”. For the same molecule, the “effect on CRF1R-mediated ERK phosphorylation” value with fetal hippocampal cells is recorded as “only produced a small reduction in CRF1R-mediated ERK phosphorylation”.

Source of the values: article PMC6921279 (Frontiers in Endocrinology, 2019).
